ChEMBL document CHEMBL4732046, “A red-light-activated sulfonamide porphycene for highly efficient photodynamic therapy against hypoxic tumor” (Eur J Med Chem, 2021)

Key:
HeLa [1] = assay: Photocytotoxicity against human HeLa cells assessed as reduction in cell viability irradiated with 640 +/- 15 nm red LED for 4 hrs measured after 24 hrs by MTT assay; assay type: functional, cell-based; conditions: light or radiation study
KYSE-70 cell line [2] = assay: Photocytotoxicity against human KYSE-70 cells assessed as reduction in cell viability irradiated with 640 +/- 15 nm red LED for 4 hrs measured after 24 hrs by MTT assay; assay type: functional, cell-based; conditions: KYSE-70, light or radiation study
A-375 [3] = assay: Photocytotoxicity against human A-375 cells assessed as reduction in cell viability irradiated with 640 +/- 15 nm red LED for 4 hrs measured after 24 hrs by MTT assay; assay type: functional, cell-based; conditions: A-375, light or radiation study
B16 [4] = assay: Photocytotoxicity against mouse B16 cells assessed as reduction in cell viability irradiated with 640 +/- 15 nm red LED for 4 hrs measured after 24 hrs by MTT assay; assay type: functional, cell-based; conditions: B16, light or radiation study
HeLa [5] = assay: Photocytotoxicity against human HeLa cells assessed as reduction in cell viability irradiated with 640 +/- 15 nm red LED for 4 hrs measured after 24 hrs under hypoxic condition by MTT assay; assay type: functional, cell-based; conditions: light or radiation study
KYSE-70 cell line [6] = assay: Photocytotoxicity against human KYSE-70 cells assessed as reduction in cell viability irradiated with 640 +/- 15 nm red LED for 4 hrs measured after 24 hrs under hypoxic condition by MTT assay; assay type: functional, cell-based; conditions: KYSE-70, light or radiation study
A-375 [7] = assay: Photocytotoxicity against human A-375 cells assessed as reduction in cell viability irradiated with 640 +/- 15 nm red LED for 4 hrs measured after 24 hrs under hypoxic condition by MTT assay; assay type: functional, cell-based; conditions: A-375, light or radiation study
B16 [8] = assay: Photocytotoxicity against mouse B16 cells assessed as reduction in cell viability irradiated with 640 +/- 15 nm red LED for 4 hrs measured after 24 hrs under hypoxic condition by MTT assay; assay type: functional, cell-based; conditions: B16, light or radiation study
HeLa [9] = assay: Cytotoxicity against human HeLa cells assessed as cell viability in dark measured after 24 hrs by MTT assay; assay type: functional, cell-based
KYSE-70 cell line [10] = assay: Cytotoxicity against human KYSE-70 cells assessed as cell viability in dark measured after 24 hrs by MTT assay; assay type: functional, cell-based; conditions: KYSE-70, 24 h
A-375 [11] = assay: Cytotoxicity against human A-375 cells assessed as cell viability in dark measured after 24 hrs by MTT assay; assay type: functional, cell-based; conditions: A-375, 24 h
B16 [12] = assay: Cytotoxicity against mouse B16 cells assessed as cell viability in dark measured after 24 hrs by MTT assay; assay type: functional, cell-based; conditions: B16, 24 h
HeLa [13] = assay: Photo-therapeutic index, ratio of LD50 for photocytotoxicity against human HeLa cells assessed as reduction in cell viability irradiated with 640 +/- 15 nm red LED for 4 hrs measured after 24 hrs by MTT assay to LD50 for cytotoxicity against human HeLa cells assessed as cell viability in dark measured after 24 hrs by MTT assay; assay type: functional

Row | SMILES | DC50 (HeLa [1]) [nM] | DC50 (KYSE-70 cell line [2]) [nM] | DC50 (A-375 [3]) [nM] | DC50 (B16 [4]) [nM] | DC50 (HeLa [5]) [nM] | DC50 (KYSE-70 cell line [6]) [nM] | DC50 (A-375 [7]) [nM] | DC50 (B16 [8]) [nM] | DC50 (HeLa [9]) [nM] | DC50 (KYSE-70 cell line [10]) [nM] | DC50 (A-375 [11]) [nM] | DC50 (B16 [12]) [nM] | Ratio (HeLa [13])
1 | CC/N=c1/cc2sc3cc(N(CC)CC)ccc3nc-2c2ccccc12 | 95 | 305 | 507 | 930 | 1030 | 809 | 1300 | 1890 | 7000 | 4000 | 1000 | 11000 | –
2 | CC(C)(C)C1=Cc2nc1ccc1[nH]c(cc1C(C)(C)C)c1nc(ccc3[nH]c2cc3S(=O)(=O)NCCOCCO)C(S(=O)(=O)NCCOCCO)=C1 | 69 | 5 | 23 | 168 | 329 | 24 | 57 | 370 | 24000 | 28000 | 28000 | 57000 | 73
